Measurements: patent US6472526B1, “Imidazole derivatives having an inhibitory activity for farnesyl transferase and process for preparation thereof” (LG Chemical Ltd., priority 1997, dated 2002)

Key:
Ras farnesyl transferase [1] = target: T1, Ras farnesyl transferase (Homo sapiens, UniProt P49354+P49356); test: In vitro inhibitory activity for Ras farnesyl transferase, H-Ras substrate; format: biochemical
T1 construct: made in house

Ras farnesyl transferase [2] = target: T2, Ras farnesyl transferase (Rattus norvegicus, UniProt Q02293+Q04631); test: In vivo (cellular) inhibitory activity for Ras farnesyl transferase, Rat2 cell line transformed with fused protein of H-Ras substituted with polybasic lysine domain at C-terminus of K-Ras; format: cell-based
T2 construct: endogenous in cells; host or cells: Rat2 fibroblasts transformed with H-Ras or with an H-Ras/K-Ras C-terminus fusion
In short: (§1)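 Farnesylated versus unfarnesylated Ras bands were measured by autoradiography after Y13-259 immunoprecipitation and SDS-PAGE, giving CIC50 as 50% inhibition of farnesylation. Rat2 cells expressing H-Ras or an H-Ras fusion with K-Ras polybasic C-terminus got compound (1% DMSO), then [35S]methionine from 4 h onward for 20 h.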

Ras farnesyl transferase [3] = target: T1, Ras farnesyl transferase; test: In vitro inhibitory activity for Ras farnesyl transferase, K-Ras substrate; format: biochemical
Ras farnesyl transferase [4] = target: T2, Ras farnesyl transferase; test: In vivo (cellular) inhibitory activity for Ras farnesyl transferase, Rat2 cell line which expresses C-Harvey-Ras protein; format: cell-based
In short: as §1

[5] = recombinant farnesyl transferase 4.5 nM, Ras substrate protein 1.5 μM, tritium-farnesylpyrophosphate 0.15 μM, 30 minutes at 37° C., read-out: H-Ras IC50
[6] = Rat2 cell line transformed with H-Ras fused with polybasic lysine domain of K-Ras C-terminus, concentration inhibiting 50% of farnesyl bonding, read-out: K-Ras CIC50
[7] = in vitro farnesyl transferase assay, K-Ras, read-out: K-Ras IC50
[8] = Rat2 cell line expressing C-Harvey-Ras, concentration inhibiting 50% of farnesyl bonding of Ras protein, read-out: H-Ras CIC50

CN1CCN(C(=O)c2cn(Cc3cncn3Cc3ccccc3Cl)cc2-c2cccc3ccccc23)CC1 [Compound 133, 1-[1-(2-Chlorobenzyl)-1H-imidazol-5-yl]methyl-3-(4-methylpiperazin-1-yl)carbonyl-4-(naphthalen-1-yl)-1H-pyrrole]
IC50 (Ras farnesyl transferase [1]; [5]): 0.65 nM | IC50 (Ras farnesyl transferase [2]; [6]): 10000 to 50000 nM | IC50 (Ras farnesyl transferase [3]; [7]): 2 nM | IC50 (Ras farnesyl transferase [4]; [8]): 25 nM

COCCN(C)C(=O)c1cn(Cc2cncn2Cc2ccccc2Cl)cc1-c1cccc2ccccc12 [Compound 134, 1-[1-(2-Chlorobenzyl)-1H-imidazol-5-yl]methyl-3-[N-(2-methoxyethyl)-N-methyl]carbamoyl-4-(naphthalen-1-yl)-1H-pyrrole]
IC50 (Ras farnesyl transferase [1]; [5]): 2.7 nM | IC50 (Ras farnesyl transferase [2]; [6]): 10000 to 50000 nM | IC50 (Ras farnesyl transferase [3]; [7]): 2 nM | IC50 (Ras farnesyl transferase [4]; [8]): 25 nM

CN1CCN(C(=O)c2cn(Cc3cncn3Cc3ccccc3F)cc2-c2cccc3ccccc23)CC1 [Compound 135, 1-[1-(2-Fluorobenzyl)-1H-imidazol-5-yl]methyl-3-(4-methylpiperazin-1-yl)carbonyl-4-(naphthalen-1-yl)-1H-pyrrole]
IC50 (Ras farnesyl transferase [1]; [5]): 2.4 nM | IC50 (Ras farnesyl transferase [2]; [6]): 10000 to 50000 nM | IC50 (Ras farnesyl transferase [3]; [7]): 4 nM | IC50 (Ras farnesyl transferase [4]; [8]): 30 nM

Cc1ccc(Cn2cncc2Cn2cc(C(=O)N3CCN(C)CC3)c(-c3cccc4ccccc34)c2)cc1 [Compound 136]
IC50 (Ras farnesyl transferase [1]; [5]): 1.6 nM | IC50 (Ras farnesyl transferase [2]; [6]): 10000 to 50000 nM | IC50 (Ras farnesyl transferase [3]; [7]): 2.4 nM | IC50 (Ras farnesyl transferase [4]; [8]): 25 nM

Cc1ccc(Cn2cncc2Cn2cc(C(=O)N3CCOCC3)c(-c3cccc4ccccc34)c2)cc1 [Compound 137]
IC50 (Ras farnesyl transferase [1]; [5]): 1.7 nM | IC50 (Ras farnesyl transferase [2]; [6]): 10000 to 20000 nM | IC50 (Ras farnesyl transferase [3]; [7]): 2.1 nM | IC50 (Ras farnesyl transferase [4]; [8]): 20 nM

Cc1cccc(Cn2cncc2Cn2cc(C(=O)N3CCN(C)CC3)c(-c3cccc4ccccc34)c2)c1 [Compound 138, 1-[1-(3-Methylbenzyl)-1H-imidazol-5-yl]methyl-3-(4-methylpiperazin-1-yl)carbonyl-4-(naphthalen-1-yl)-1H-pyrrole]
IC50 (Ras farnesyl transferase [1]; [5]): 1.4 nM | IC50 (Ras farnesyl transferase [2]; [6]): 10000 to 50000 nM | IC50 (Ras farnesyl transferase [3]; [7]): 3.5 nM | IC50 (Ras farnesyl transferase [4]; [8]): 25 nM

N#Cc1ccc(Cn2cncc2Cn2ccc(C(=O)c3cccc4ccccc34)c2)cc1 [Compound 139, 1-[1-(4-Cyanobenzyl)-1H-imidazol-5-yl]methyl-3-(naphthalen-1-yl)carbonyl-1H-pyrrole]
IC50 (Ras farnesyl transferase [1]): 5 nM | IC50 (Ras farnesyl transferase [2]): 7000 nM | IC50 (Ras farnesyl transferase [3]): 37000 nM | IC50 (Ras farnesyl transferase [4]): 70 nM

O=C(c1ccn(Cc2cncn2Cc2ccc(Br)cc2)c1)c1cccc2ccccc12 [Compound 140, 1-[1-(4-Bromobenzyl)-1H-imidazol-5-yl]methyl-3-(naphthalen-1-yl)carbonyl-1H-pyrrole]
IC50 (Ras farnesyl transferase [1]): 90 nM | IC50 (Ras farnesyl transferase [2]): 10000 to 50000 nM | IC50 (Ras farnesyl transferase [3]): 10000 to 50000 nM | IC50 (Ras farnesyl transferase [4]): 1000 to 10000 nM

COCCN(C)C(=O)c1cn(Cc2cncn2Cc2ccc(Br)cc2)cc1C(=O)c1cccc2ccccc12 [Compound 141]
IC50 (Ras farnesyl transferase [1]): 230 nM | IC50 (Ras farnesyl transferase [2]): 10000 to 50000 nM | IC50 (Ras farnesyl transferase [3]): 10000 to 100000 nM | IC50 (Ras farnesyl transferase [4]): 1000 to 10000 nM

CCOC(=O)c1nc(Cc2cnc[nH]2)oc1-c1cccc2ccccc12 [Compound 142, 4-Ethoxycarbonyl-2-(1H-imidazol-5-ylmethyl)-5-(naphthalen-1-yl)oxazole]
IC50 (Ras farnesyl transferase [1]; [5]): 12000 nM | IC50 (Ras farnesyl transferase [2]; [6]): > 50000 nM | IC50 (Ras farnesyl transferase [3]; [7]): > 50000 nM | IC50 (Ras farnesyl transferase [4]; [8]): > 50000 nM

O=C(c1nc(Cc2cnc[nH]2)oc1-c1cccc2ccccc12)N1CCOCC1 [Compound 143, 2-(1H-Imidazol-5-ylmethyl)-4-(morpholin-4-yl)carbonyl-5-(naphthalen-1-yl)oxazole]
IC50 (Ras farnesyl transferase [1]; [5]): 1200 nM | IC50 (Ras farnesyl transferase [2]; [6]): > 50000 nM | IC50 (Ras farnesyl transferase [3]; [7]): > 50000 nM | IC50 (Ras farnesyl transferase [4]; [8]): 20000 nM

COC(=O)c1nc(Cc2cncn2Cc2ccc(Cl)cc2)sc1-c1cccc2ccccc12 [Compound 145, 2-[1-(4-Chlorobenzyl)-1H-imidazol-5-ylmethyl]-4-methoxycarbonyl-5-(naphthalen-1-yl)thiazole]
IC50 (Ras farnesyl transferase [1]; [5]): 7 nM | IC50 (Ras farnesyl transferase [2]; [6]): 25000 nM | IC50 (Ras farnesyl transferase [3]; [7]): 70 nM | IC50 (Ras farnesyl transferase [4]; [8]): 100 nM

COC(=O)c1sc(Cc2cncn2Cc2ccc(Cl)cc2)nc1-c1cccc2ccccc12 [Compound 148]
IC50 (Ras farnesyl transferase [1]; [5]): 1700 nM | IC50 (Ras farnesyl transferase [2]; [6]): > 50000 nM | IC50 (Ras farnesyl transferase [3]; [7]): > 50000 nM | IC50 (Ras farnesyl transferase [4]; [8]): 30000 nM

COC(=O)c1sc(Cc2cncn2CC2CCN(C(=O)OCc3ccccc3)CC2)nc1-c1cccc2ccccc12 [Compound 150]
IC50 (Ras farnesyl transferase [1]; [5]): 8000 nM | IC50 (Ras farnesyl transferase [2]; [6]): > 50000 nM | IC50 (Ras farnesyl transferase [3]; [7]): > 50000 nM | IC50 (Ras farnesyl transferase [4]; [8]): > 50000 nM

COCCN(C)C(=O)c1cn(Cc2cncn2Cc2ccc(Cl)cc2)nc1-c1cccc2ccccc12 [Compound 155, 1-[1-(4-Chlorobenzyl)-1H-imidazol-5-ylmethyl]-4-[N-(2-methoxyethyl)-N-methyl]-carbamoyl-3-(naphthalen-1-yl)-1H-pyrazole]
IC50 (Ras farnesyl transferase [1]; [5]): 20 nM | IC50 (Ras farnesyl transferase [2]; [6]): 15000 nM | IC50 (Ras farnesyl transferase [3]; [7]): 200 nM | IC50 (Ras farnesyl transferase [4]; [8]): 100 nM

COCCN(C)C(=O)c1cn(Cc2cncn2Cc2ccc(C#N)cc2)nc1-c1cccc2ccccc12 [Compound 156, 1-[1-(4-Cyanobenzyl)-1H-imidazol-5-ylmethyl]-4-[N-(2-methoxyethyl)-N-methyl]-carbamoyl-3-(naphthalen-1-yl)-1H-pyrazole]
IC50 (Ras farnesyl transferase [1]; [5]): 20 nM | IC50 (Ras farnesyl transferase [2]; [6]): 40000 nM | IC50 (Ras farnesyl transferase [3]; [7]): 200 nM | IC50 (Ras farnesyl transferase [4]; [8]): 100 nM

COCCN(C)C(=O)c1cn(Cc2cncn2C)nc1-c1cccc2ccccc12 [Compound 157, 1-[1-Methyl-1H-imidazol-5-ylmethyl]-4-[N-(2-methoxyethyl)-N-methyl]-carbamoyl-3-(naphthalen-1-yl)-1H-pyrazole]
IC50 (Ras farnesyl transferase [1]; [5]): 10 nM | IC50 (Ras farnesyl transferase [2]; [6]): > 50000 nM | IC50 (Ras farnesyl transferase [3]; [7]): 5000 nM | IC50 (Ras farnesyl transferase [4]; [8]): 100 nM

O=C(c1cn(Cc2cncn2Cc2ccc(Br)cc2)nc1-c1cccc2ccccc12)N1CCOCC1 [Compound 160, 1-[1-(4-Bromobenzyl)-1H-imidazol-5-ylmethyl]-4-(morpholin-4-yl)carbonyl-3-(naphthalen-1-yl)-1H-pyrazole]
IC50 (Ras farnesyl transferase [1]; [5]): 300 nM | IC50 (Ras farnesyl transferase [2]; [6]): 40000 nM | IC50 (Ras farnesyl transferase [3]; [7]): 3000 nM | IC50 (Ras farnesyl transferase [4]; [8]): 1500 nM
